Laboratory results from patent publication US10787432B2, “N-[(pyridyloxy)propanyl]benzamides” (Boehringer Ingelheim International GmbH, priority 2016, dated 2020).
Where two headings read alike, the source gives them in different places.

Legend:
human orexin 2 receptor = biological target: T1, human orexin 2 receptor (Homo sapiens, UniProt O43614); test: Assay B: In vitro testing of OX2R potency: OX2R IP1 (HTRF, CHO-K1/hOX2 cells, Orexin A as agonist); format: cell-based; conditions: Orexin A 0.5 nM
T1 construct: stably expressing the full-length human orexin 2 receptor; expressed in transfected cells; host or cells: CHO-K1 (CHO-K1/hOX2), co-expressing aequorin
T1 sequence (O43614 1-444): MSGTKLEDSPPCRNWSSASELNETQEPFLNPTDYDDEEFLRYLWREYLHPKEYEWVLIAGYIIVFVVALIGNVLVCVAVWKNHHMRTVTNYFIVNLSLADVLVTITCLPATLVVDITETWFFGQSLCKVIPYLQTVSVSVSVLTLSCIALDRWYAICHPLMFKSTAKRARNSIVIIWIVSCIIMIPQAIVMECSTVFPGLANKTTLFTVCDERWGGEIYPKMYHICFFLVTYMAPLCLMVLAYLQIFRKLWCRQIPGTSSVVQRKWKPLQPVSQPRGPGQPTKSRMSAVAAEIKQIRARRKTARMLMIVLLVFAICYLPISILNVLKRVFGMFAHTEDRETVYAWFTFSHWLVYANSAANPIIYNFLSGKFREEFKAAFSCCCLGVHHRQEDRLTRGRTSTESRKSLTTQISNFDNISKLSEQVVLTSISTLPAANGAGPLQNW
Text: Activation of the orexin receptors expressed in cell lines results in an increase in intracellular IP3 concentration. IP1, a downstream metabolite of IP3, accumulates in cells following receptor activation and is stable in the presence of LiCl. Using Homogeneous Time-Resolved Fluorescence technology with Lumi4-Tb cryptate (commercially available from Cisbio Bioassay.) and a suitable fluorescence plate reader. […] Chem. Genomics 2009, 3, 22-32. This technique is used to characterize pharmacological modification of the orexin receptors.
B. In Vitro Testing of OX2R Potency: OX2R IP1
IP1 measurements are performed in CHO-K1 cells stably expressing the full-length human orexin 2 receptor and the aequorin photoprotein. Cells are cultivated in Ham's nutrient mixture F12 medium with 10% fetal calf serum, in a 37° C., 95% humidity and 5% CO2 incubator. The CHO-K1/hOX2 cell mass is expanded to larger cell numbers. The cells are obtained as frozen cells in cryo-vials and stored until use at −150° C. The viability of the cells after thawing is >90%. In preparation for the assay, 24 hours before the assay, the cells are thawed at 37° C. and immediately diluted with cell culture medium. After centrifugation, the cell pellet is resuspended in medium and then distributed into the assay plates with a density of 5000 cells/25 μL per well. The plates are incubated for one hour at room temperature to reduce edge effects before they are incubated for 24 hours at 37° C./5% CO2. Compounds are prepared by a 8-point serial dilution in DMSO and a final dilution step into assay buffer (HBSS with 20 mM HEPES, 0.1% BSA and 50 mM LiCl, pH 7.4) to ensure a final DMSO concentration of 1% in the assay.
On the day of the assay, cells in the plate are washed twice with 60 μL assay buffer (20 μL buffer remained in the wells after washing), followed by adding 5 μL per well of compounds diluted in assay buffer. After 15 minutes of incubation at room temperature 5 μL per well of Orexin A peptide (final concentration: 0.5 nM) dissolved in assay buffer is added to the assay plate. The assay plate is incubated for 60 minutes at 37° C. Then 5 μL per well of Anti-IP1-Cryptate Tb solution and 5 μL per well of IP1-d2 dilution are added to all well of the plate and the plate is incubated for a further 60 minutes light protected at room temperature. The emission at 615 nm and 665 nm (Excitation wavelength: 320 nm) are measured using an EnVision reader (PerkinElmer). The ratio between the emission at 665 nm and 615 is calculated by the reader.
8-point four parametric non-linear curve fitting and determination of IC50 values and Hill slopes is performed using a regular analysis software e.g. AssayExplorer (Accelrys). In order to establish an agonist concentration independent parameter, Kb values are calculated using the following equation: IC50/((2+(A/EC50)n)^1/n−1) (with A=concentration agonist, EC50=EC50 agonist, n=Hill slope agonist) (see P. Leff, I. G. Dougall, Trends Pharmacol. Sci. 1993, 14(4), 110-112).
Kb values from Assay A (OX1R) and Assay B (OX2R) can then provide a selectivity ratio which is independent of the agonist (Orexin A) concentration.

[1] = Assay C: Metabolic stability in human liver microsomes (Human MST); format: in vitro ADME; conditions: pooled human liver microsomes, pH 7.6; human liver microsomes 1 mg/mL, compound 1 μM, 37° C., NADPH; read-out: Human MST t1/2
Description: C. Assessment of Metabolic Stability in Human Liver Microsomes (Human MST)
The metabolic stability of the compounds according to the invention may be investigated as follows:
The metabolic degradation of the test compound is assayed at 37° C. with pooled human liver microsomes. The final incubation volume of 100 μL per time point contains TRIS buffer pH 7.6 at room temperature (0.1 M), MgCl2 (5 mM), microsomal protein (1 mg/mL) and the test compound at a final concentration of 1 μM. Following a short pre-incubation period at 37° C., the reactions are initiated by addition of beta-nicotinamide adenine dinucleotide phosphate, reduced form (NADPH, 1 mM), and terminated by transferring an aliquot into solvent after different time points. After centrifugation (10000 g, 5 min), an aliquot of the supernatant is assayed by LC-MS/MS for the amount of parent compound. The half-life (t1/2) is determined by the slope of the semi-logarithmic plot of the concentration-time profile.

human Orexin 1 receptor = biological target: T2, human Orexin 1 receptor (Homo sapiens, UniProt O43613); test: Assay A: In vitro testing of OX1R potency: OX1R IP1 (HTRF, CHO-K1/hOX1 cells, Orexin A as agonist); format: cell-based; conditions: for Kb: read-out: OX1R Kb (Orexin A concentration used)
T2 construct: stably expressing the full-length human Orexin 1 receptor; expressed in transfected cells; host or cells: CHO-K1 (CHO-K1/hOX1), co-expressing aequorin
T2 sequence (O43613 1-425): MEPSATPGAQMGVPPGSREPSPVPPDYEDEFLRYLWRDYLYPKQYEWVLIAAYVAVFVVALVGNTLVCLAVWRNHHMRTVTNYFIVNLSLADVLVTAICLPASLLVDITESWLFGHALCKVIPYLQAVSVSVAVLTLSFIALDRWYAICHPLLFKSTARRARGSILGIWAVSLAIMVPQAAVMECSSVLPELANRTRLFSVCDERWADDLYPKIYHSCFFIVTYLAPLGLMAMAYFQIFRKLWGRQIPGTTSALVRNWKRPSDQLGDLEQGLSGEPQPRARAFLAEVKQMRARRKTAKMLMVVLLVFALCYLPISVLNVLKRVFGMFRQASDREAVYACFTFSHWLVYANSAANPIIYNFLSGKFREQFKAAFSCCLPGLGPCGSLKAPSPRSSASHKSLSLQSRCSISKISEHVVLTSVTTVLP

Row | Structure (SMILES) | Kb (human orexin 2 receptor) [nM] | half-life at 1 μM [1] [min] | OX2R Kb/OX1R Kb (human Orexin 1 receptor; OX1R Kb at 50 nM Orexin A) | Kb (human Orexin 1 receptor; Orexin A 50 nM) [nM] | OX2R Kb/OX1R Kb (human Orexin 1 receptor; OX1R Kb at 0.5 nM Orexin A) | Kb (human Orexin 1 receptor; Orexin A 0.5 nM) [nM]
1 | CCN(C(=O)c1ccc(Cl)cc1-n1nccn1)[C@@H](C)COc1ncc(C(F)(F)F)cc1F [Example 73] | 235 | 12 | 734 | 0.32 |  | 
2 | CCN(C(=O)c1ccccc1-c1ccn(C)n1)[C@@H](C)COc1ccc(C(F)(F)F)cn1 [Example 74] | 48 | 14 | 229 | 0.21 | 123 | 0.39
3 | CCN(C(=O)c1ccccc1-c1cncc(C#N)c1)[C@@H](C)COc1ccc(C(F)(F)F)cn1 [Example 76] | 124 | 11 | 125 | 0.99 | 113 | 1.1
4 | CCN(C(=O)c1ccccc1-c1cnc(OC)nc1)[C@@H](C)COc1ccc(C(F)(F)F)cn1 [Example 79] | 92 | 12 | 58 | 1.6 | 66 | 1.4
5 | CCN(C(=O)c1ccccc1-c1ccn(C)c(=O)c1)[C@@H](C)COc1ccc(C(F)(F)F)cn1 [Example 81] | 1670 | 39 |  |  | 575 | 2.9
6 | CCN(C(=O)c1ccccc1-c1cnnc(C)c1)[C@@H](C)COc1ccc(C(F)(F)F)cn1 [Example 84] | 1290 | 11 |  |  | 150 | 8.6
7 | CCN(C(=O)c1ccccc1-c1cnc(C)nc1)[C@@H](C)COc1ccc(C(F)(F)F)cn1 [Example 85] | 583 | 17 |  |  | 68 | 8.6
8 | CCN(C(=O)c1cccc(Cl)c1-n1nccn1)[C@@H](C)COc1ccc(C(F)(F)F)cn1 [Example 90] | 13 | 44 | 520 | 0.025 |  | 
9 | CCN(C(=O)c1ccc(F)c(F)c1-n1nccn1)[C@@H](C)COc1ccc(C(F)(F)F)cn1 [Example 91] | 68 | 18 | 340 | 0.2 |  | 
10 | CCN(C(=O)c1c(-n2nccn2)ccc(C)c1F)[C@@H](C)COc1ccc(C(F)(F)F)cn1 [Example 92] | 16 | 18 | 640 | 0.025 |  | 
11 | CCN(C(=O)c1ccccc1-c1cnn(C)c1)[C@@H](C)COc1ccc(C(F)(F)F)cn1 [Example 93] | 74 | 18 | 99 | 0.75 |  | 
12 | CCN(C(=O)c1c(F)cccc1-n1nccn1)[C@@H](C)COc1ccc(C(F)(F)F)cn1 [Example 94] | 78 | 31 | 211 | 0.37 |  | 
13 | CCN(C(=O)c1cc(C#N)ccc1-n1nccn1)[C@@H](C)COc1ccc(C(F)(F)F)cn1 [Example 95] | 37 | > 130 | 74 | 0.5 | 71 | 0.52
14 | CCN(C(=O)c1ccccc1-c1ccc(=O)n(C)c1)[C@@H](C)COc1ccc(C(F)(F)F)cn1 [Example 96] | 1610 | 34 |  |  | 217 | 7.4
15 | CCN(C(=O)c1cccc(F)c1-c1ncccn1)[C@@H](C)COc1ccc(C(F)(F)F)cn1 [Example 97] | 20 | 100 | 800 | 0.025 |  | 
16 | CCN(C(=O)c1ccc(C)cc1-c1ncccn1)[C@@H](C)COc1ccc(C(F)(F)F)cn1 [Example 101] | 30 | 13 |  |  | 79 | 0.38
17 | CCN(C(=O)c1ccccc1-c1ncccn1)[C@@H](C)COc1ccc(C(F)(F)F)cn1 [Example 102] | 27 | 36 | 1080 | 0.025 |  | 
18 | CCN(C(=O)c1ccc(C#N)cc1-n1nccn1)[C@@H](C)COc1ccc(C(F)(F)F)cn1 [Example 103] | 1170 | 58 |  |  | 273 | 4.28
19 | CCN(C(=O)c1cc(C)ccc1-c1ncccn1)[C@@H](C)COc1ccc(C(F)(F)F)cn1 [Example 105] | 11 | 10 | 524 | 0.021 |  | 
